Experimental data reported in patent US8153805B2, “Biaryl derivatives” (Hoffmann-La Roche Inc., priority 2007, dated 2012).

target: T1, human CCR2B (Homo sapiens, UniProt P41597); assay: Calcium mobilization assay (FLIPR, MCP-1 stimulated CHOK1-CCR2B-A5 cells); type: cell-based; conditions: antagonist activity vs 20 nM MCP-1, CHOK1-CCR2B-A5 cells
T1 construct: host or cells: CHO-K1 (CHOK1-CCR2B-A5)
T1 sequence (P41597 1-360 isoform P41597-2): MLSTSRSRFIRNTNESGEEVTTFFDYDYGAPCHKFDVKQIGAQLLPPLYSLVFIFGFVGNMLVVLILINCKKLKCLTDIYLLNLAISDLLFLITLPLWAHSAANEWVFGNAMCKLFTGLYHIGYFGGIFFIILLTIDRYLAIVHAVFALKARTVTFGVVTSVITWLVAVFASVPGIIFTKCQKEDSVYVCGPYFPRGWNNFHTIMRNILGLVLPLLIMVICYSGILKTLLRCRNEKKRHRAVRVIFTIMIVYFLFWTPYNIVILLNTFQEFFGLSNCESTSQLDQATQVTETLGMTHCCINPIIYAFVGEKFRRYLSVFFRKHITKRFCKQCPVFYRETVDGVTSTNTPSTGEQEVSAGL
Method: Calcium Mobilization Assay
CHOK1-CCR2B-A5 cells (from Euroscreen) stably overexpressing the human chemokine receptor 2 isoform B were cultured in Nutrient Hams F12 medium supplemented with 5% FBS, 100 U/ml penicillin, 100 μg/ml streptomycin, 400 μg/ml G418 and 5 μg/ml puromycin.
For the assay cells were grown overnight in 384-well black clear flat bottom polystyrene plates (Costar) at 37° C. at 5% CO2. After washing with DMEM, 20 mM Hepes, 2.5 mM probenecid, 0.1% BSA (DMEM assay buffer) cells were loaded with 4 μM Fluo-4 in the same DMEM assay buffer for 2 hours at 30° C. Excess dye was removed and cells were washed with DMEM assay buffer. 384-well compound plates were prepared with DMEM assay buffer/0.5% DMSO with or without various concentrations of test compounds. Usually compounds were tested for agonist and antagonist activity.
Test compounds were added to the assay plate and agonist activity was monitored as fluorescence for 80 seconds with a FLIPR (488 nm excitation; 510-570 nm emission; Molecular Devices). After 20-30 min. of incubation at 30° C., 20 nM MCP-1 (R&D; Roche) was added and fluorescence was monitored again for 80 seconds. Increases in intracellular calcium are reported as maximum fluorescence after agonist exposure minus basal fluorescence before exposure. Antagonist activity is indicated as inhibitor concentration required for 50% inhibition of specific calcium increases.

Structure (SMILES)	IC50
Cc1cc(-c2cccc(C(F)(F)F)c2)nc(C)c1C(=O)N1CCC(N2CCC[C@H]2CO)CC1 [Example 30, [2,4-Dimethyl-6-(3-trifluoromethyl-phenyl)-pyridin-3-yl]-[4-((S)-2-hydroxymethyl-pyrrolidin-1-yl)-piperidin-1-yl]-methanone]	0.067 µM
COc1nc(-c2cccc(C(F)(F)F)c2)cc(C)c1C(=O)N1CCC(N2CCCC2)CC1 [Example 50, [2-Methoxy-4-methyl-6-(3-trifluoromethyl-phenyl)-pyridin-3-yl]-(4-pyrrolidin-1-yl-piperidin-1-yl)-methanone]	0.082 µM
Cc1cc(-c2cccc(OC(F)(F)F)c2)nc(C)c1C(=O)N1CCC(N2CCCC2)CC1 [Example 28, [2,4-Dimethyl-6-(3-trifluoromethoxy-phenyl)-pyridin-3-yl]-(4-pyrrolidin-1-yl-piperidin-1-yl)-methanone]	0.079 µM
Cc1cc(-c2cccc(OC(F)(F)F)c2)nc(C)c1C(=O)N1CCC(N2CCC[C@H]2CO)CC1 [Example 29, [2,4-Dimethyl-6-(3-trifluoromethoxy-phenyl)-pyridin-3-yl]-[4-((S)-2-hydroxymethyl-pyrrolidin-1-yl)-piperidin-1-yl]-methanone]	0.15 µM
Cc1cc(-c2cncc(C(F)(F)F)c2)nc(C)c1C(=O)N1CCC(N2CCC[C@H]2CO)CC1 [Example 43, (4,6-Dimethyl-5′-trifluoromethyl-[2,3′]bipyridinyl-5-yl)-[4-((S)-2-hydroxymethyl-pyrrolidin-1-yl)-piperidin-1-yl]-methanone]	0.48 µM
Cc1cc(-c2cccc(C(F)(F)F)c2)nc(O)c1C(=O)N1CCC(N2CCCC2)CC1 [Example 51, [2-Hydroxy-4-methyl-6-(3-trifluoromethyl-phenyl)-pyridin-3-yl]-(4-pyrrolidin-1-yl-piperidin-1-yl)-methanone; 4-Methyl-3-(4-pyrrolidin-1-yl-piperidine-1-carbonyl)-6-(3-trifluoromethyl-phenyl)-1H-pyridin-2-one (tautomers)]	0.017 µM
Cc1cc(-c2cccc(C(F)(F)F)c2)cc(C)c1C(=O)N1CCC(N2CCCC2)CC1 [Example 2, (3,5-Dimethyl-3′-trifluoromethyl-biphenyl-4-yl)-(4-pyrrolidin-1-yl-piperidin-1-yl)-methanone]	0.021 µM
Cc1cc(-c2cccc(OC(F)(F)F)c2)ccc1C(=O)N1CCC(N2CCCC2)CC1 [Example 6, (3-Methyl-3′-trifluoromethoxy-biphenyl-4-yl)-(4-pyrrolidin-1-yl-piperidin-1-yl)-methanone]	0.43 µM
Cc1nc(-c2cccc(C(F)(F)F)c2)nc(C2CC2)c1C(=O)N1CCC(N2CCC[C@H]2CO)CC1 [Example 19, [4-Cyclopropyl-6-methyl-2-(3-trifluoromethyl-phenyl)-pyrimidin-5-yl]-[4-((S)-2-hydroxymethyl-pyrrolidin-1-yl)-piperidin-1-yl]-methanone]	0.99 µM
Cc1cc(-c2cccc(C(F)(F)F)c2)cc(C)c1C(=O)N1CCC(N2CCC(O)CC2)CC1 [Example 22, (3,5-Dimethyl-3′-trifluoromethyl-biphenyl-4-yl)-(4-hydroxy-[1,4′]bipiperidinyl-1′-yl)-methanone]	0.055 µM
O=C(c1c(F)cc(-c2cccc(OC(F)(F)F)c2)cc1F)N1CCC(N2CCCC2)CC1 [Example 40, (3,5-Difluoro-3′-trifluoromethoxy-biphenyl-4-yl)-(4-pyrrolidin-1-yl-piperidin-1-yl)-methanone]	0.22 µM
Cc1cc(-c2cccc(C(F)(F)F)c2)nc(C)c1C(=O)N1CCC(N2CCCC2)CC1 [Example 27, [2,4-Dimethyl-6-(3-trifluoromethyl-phenyl)-pyridin-3-yl]-(4-pyrrolidin-1-yl-piperidin-1-yl)-methanone]	0.021 µM
Cc1cc(-c2cccc(C(F)(F)F)c2)cc(-c2cncnc2)c1C(=O)N1CCC(N2CCCC2)CC1 [Example 47, (5-Methyl-3-pyrimidin-5-yl-3′-trifluoromethyl-biphenyl-4-yl)-(4-pyrrolidin-1-yl-piperidin-1-yl)-methanone]	0.012 µM
Cc1cc(-c2cccc(C(F)(F)F)c2)cc(-c2cccnc2)c1C(=O)N1CCC(N2CCCC2)CC1 [Example 48, (5-Methyl-3-pyridin-3-yl-3′ trifluoromethyl-biphenyl-4-yl)-(4-pyrrolidin-1-yl-piperidin-1-yl)-methanone]	0.016 µM
O=C(c1ccc(-c2cccc(C(F)(F)F)c2)cc1Cl)N1CCC(N2CCCC2)CC1 [Example 46, (3-Chloro-3′-trifluoromethyl-biphenyl-4-yl)-(4-pyrrolidin-1-yl-piperidin-1-yl)-methanone]	0.122 µM
Cc1cc(-c2cncc(C(F)(F)F)c2)nc(C)c1C(=O)N1CCC(N2CCCC2)CC1 [Example 42, (4,6-Dimethyl-5′-trifluoromethyl-[2,3′]bipyridinyl-5-yl)-(4-pyrrolidin-1-yl-piperidin-1-yl)-methanone]	0.24 µM
Cc1cc(-c2cccc(C(F)(F)F)c2)ccc1C(=O)N1CCC(N2CCCC2)CC1 [Example 7, (3-Methyl-3′-trifluoromethyl-biphenyl-4-yl)-(4-pyrrolidin-1-yl-piperidin-1-yl)-methanone]	0.15 µM
Cc1cc(-c2cccc(C(F)(F)F)c2)nc(OCCO)c1C(=O)N1CCC(N2CCCC2)CC1 [Example 53, [2-(2-Hydroxy-ethoxy)-4-methyl-6-(3-trifluoromethyl-phenyl)-pyridin-3-yl]-(4-pyrrolidin-1-yl-piperidin-1-yl)-methanone]	0.011 µM
Cc1cc(-c2cccc(OC(F)(F)F)c2)cc(C)c1C(=O)N1CCC(N2CCC[C@H]2CO)CC1 [Example 10, (3,5-Dimethyl-3′-trifluoromethoxy-biphenyl-4-yl)-[4-((S)-2-hydroxymethyl-pyrrolidin-1-yl)-piperidin-1-yl]-methanone]	0.039 µM
O=C(c1c(F)cc(-c2cccc(C(F)(F)F)c2)cc1F)N1CCC(N2CCCC2)CC1 [Example 39, (3,5-Difluoro-3′-trifluoromethyl-biphenyl-4-yl)-(4-pyrrolidin-1-yl-piperidin-1-yl)-methanone]	0.089 µM
Cc1cc(-c2cccc(C(F)(F)F)c2)cc(C)c1C(=O)N1CCC(N2CCC[C@H]2CO)CC1 [Example 9, (3,5-Dimethyl-3′-trifluoromethyl-biphenyl-4-yl)-[4-((S)-2-hydroxymethyl-pyrrolidin-1-yl)-piperidin-1-yl]-methanone]	0.009 µM
Cc1cc(-c2cccc(C(F)(F)F)c2)cc(O)c1C(=O)N1CCC(N2CCCC2)CC1 [Example 45, (3-Hydroxy-5-methyl-3′-trifluoromethyl-biphenyl-4-yl)-(4-pyrrolidin-1-yl-piperidin-1-yl)-methanone]	0.048 µM
COc1cc(-c2cccc(C(F)(F)F)c2)cc(C)c1C(=O)N1CCC(N2CCCC2)CC1 [Example 44, (3-Methoxy-5-methyl-3′-trifluoromethyl-biphenyl-4-yl)-(4-pyrrolidin-1-yl-piperidin-1-yl)-methanone]	0.076 µM
Cc1nc(-c2cccc(C(F)(F)F)c2)nc(C2CC2)c1C(=O)N1CCC(N2CCCC2)CC1 [Example 18, [4-Cyclopropyl-6-methyl-2-(3-trifluoromethyl-phenyl)-pyrimidin-5-yl]-(4-pyrrolidin-1-yl-piperidin-1-yl)-methanone]	0.49 µM
Cc1cc(-c2cccc(OC(F)(F)F)c2)cc(C)c1C(=O)N1CCC(N2CCCC2)CC1 [Example 1, (3,5-Dimethyl-3′-trifluoromethoxy-biphenyl-4-yl)-(4-pyrrolidin-1-yl-piperidin-1-yl)-methanone]	0.06 µM
Cc1nc(-c2cccc(C(F)(F)F)c2)nc(C)c1C(=O)N1CCC(N2CCC[C@H]2CO)CC1 [Example 16, [4,6-Dimethyl-2-(3-trifluoromethyl-phenyl)-pyrimidin-5-yl]-[4-((S)-2-hydroxymethyl-pyrrolidin-1-yl)-piperidin-1-yl]-methanone]	0.31 µM
Cc1nc(-c2cccc(C(F)(F)F)c2)nc(C)c1C(=O)N1CCC(N2CCCC2)CC1 [Example 13, [4,6-Dimethyl-2-(3-trifluoromethyl-phenyl)-pyrimidin-5-yl]-(4-pyrrolidin-1-yl-piperidin-1-yl)-methanone]	0.19 µM
Cc1cc(-c2cncc(C(F)(F)F)c2)cc(C)c1C(=O)N1CCC(N2CCC[C@H]2CO)CC1 [Example 14, [2,6-Dimethyl-4-(5-trifluoromethyl-pyridin-3-yl)-phenyl]-[4-((S)-2-hydroxymethyl-pyrrolidin-1-yl)-piperidin-1-yl]-methanone]	0.048 µM
Cc1cc(-c2cncc(C(F)(F)F)c2)cc(C)c1C(=O)N1CCC(N2CCC(O)CC2)CC1 [Example 24, [2,6-Dimethyl-4-(5-trifluoromethyl-pyridin-3-yl)-phenyl]-(4-hydroxy-[1,4′]bipiperidinyl-1′-yl)-methanone]	0.27 µM
